Source: article PMC13183915, “A platinum butterfly effect: small changes turn an anticancer drug into a non-toxic metalloantibiotic with in vivo efficacy” (npj Antimicrobials and Resistance, 2026)
Values joined by “and” are separate entries in the source; they are usually repeats but may differ in a detail not shown here. Identical values can stand only once.

Experiments:
B. subtilis bSS82 = test: Bacterial cytological profiling (BCP); format: cell-based, Bacillus subtilis
Description: To get an overview of the cellular effects of the compounds, we employed bacterial cytological profiling (BCP). To this end, we used a strain intracellularly expressing green-fluorescent protein (GFP) from the strong, constitutive PrpsD promoter (B. subtilis bSS82[37]), stained with the membrane dye Nile red and the DNA dye DAPI. Combined with phase contrast microscopy, this setup allows simultaneous assessment of cell morphology, cell lysis, pore formation, membrane morphology, and nucleoid morphology in one assay.
BCP was performed according to Wenzel et al.[71]. In short, B. subtilis strain […] (PrpsD-gfp) was grown to an OD600 of 0.3 prior to splitting of parent cultures and addition of antibiotics. Samples were taken for microscopy after 30, 60, and 120 min of antibiotic treatment. Five minutes prior to sampling, cultures were stained with 0.5 µg/mL Nile red and 1 µg/mL DAPI for 5 min. Samples of 0.5 µL were then spotted onto 1% agarose slides[45] and images were taken immediately.
Cell length and DAPI intensity were analyzed using MicrobeJ[73]. To this end, the fit shape, rod-shaped setting was used with a minimum area of 0.5 µm, while all other settings remained at default. B. subtilis chains were seperated based on the membrane stain. Membrane stress was counted using the ObjectJ plugin[74], using the membrane setting to seperate individual cells in chains. Membrane damage was expressed as ratio of cells with visible Nile red foci and total detected cells. DNA compaction was analyzed by determining the area of the DNA and the whole cell are using advanced weka segmentation. Cells were segmented according to the GFP signal. […] Cells that were out of focus or lysed were excluded from the analysis. Statistical analysis was peformed using GraphPad Prism 10 as specified in the individual figure legends.

S. aureus ATCC 29213 [1] = test: Resistance induction by serial passage; format: cell-based; conditions: after 36 days at ½ MIC
Method: The MICs of the passaged cultures were determined every 3 days and compared to that of wild type S. aureus ATCC 29213. MIC changes were recorded for 36 passages.

C. albicans = tested on: C. albicans; parameters: method as in PMID 36311838; conditions: cited from earlier work
MRSA NRS 129 = test: Broth microdilution MIC, MRSA NRS 129; format: cell-based, S. aureus; conditions: MRSA NRS 129
Method: The data is given in supporting information (Table S5). Before starting the experiment, a single colony was picked from MHA plate, inoculated in MHBII and incubated overnight at 37 °C with shaking for 18–24 h to get the starter culture. Antibiotic susceptibility testing was conducted according to the CLSI (Clinical & Laboratory Standards Institute) guidelines using the broth microdilution assay. 10 mg/mL stock solutions of test compounds were prepared in DMSO. Bacterial cultures were inoculated in MHBII and optical density (OD) was measured at 600 nm, followed by dilution to achieve ~10^6 CFU/mL. The compounds were tested from 64 to 0.5 mg/L in two-fold serial diluted fashion with 2.5 μL of each concentration added to well of a 96-well round bottom microtiter plate. Later, 97.5 μL of bacterial suspension was added to each well containing either test compound or appropriate controls. […] The MIC is defined as the lowest concentration of the compound at which there is absence of visible growth. For each test compound, MIC determinations were carried out independently three times using duplicate samples.

[2] = tested on: RecA-GFP (B. subtilis UG10); test: Localization of RecA-GFP (DNA damage reporter); format: cell-based, Bacillus subtilis; conditions: Pt1 3.125 µM, Pt8 25 µM, CisPt 100 µM; strongest after 10 min
Method: To confirm whether the compounds induce DNA damage in bacterial cells, the localization of RecA was assessed. RecA is part of the bacterial SOS response to DNA damage. It is a DNA-associated protein that recognizes single-stranded DNA, which occurs as a consequence of strand breaks. If strand breaks are present, RecA accumulates at the damaged sites, appearing as foci or elongated structures. Since the RecA response is strongest shortly after stress induction, we additionally examined a 10 min timepoint in this assay.
B. subtilis strains were grown in LB containing appropriate inducer concentrations as specified in Table S10. After reaching an OD600 of 0.3, cultures were split and treated with antibiotics. Samples were withdrawn after 30 and 60 min of treatment, spotted on glass slides covered with 1% agarose films, and immediately imaged.

B. subtilis 168CA = test: Optimal stressor concentration, acute shock growth curves; format: cell-based, Bacillus subtilis; conditions: after compound addition
Method: To establish a starting concentration for the OSC assay, MICs against parent strain 168CA were determined under conditions equivalent to those used for mode of action assays. […] MICs were used as basis for OSC determination. To this end, growth curves were recorded using optical density (OD) measurements. Culture volumes of 20 mL were grown until reaching an OD600 of 0.3. Subsequently, the parent culture was split into 2 ml aliquots, followed by addition of different MIC multiples of Pt compounds[71]. An untreated culture served as control. Growth was followed until cultures reached the stationary phase. A concentration achieving 50–70% growth inhibition in exponential phase was selected as optimal stressor concentration. […] As controls, 0.23 µM nisin, 0.53 µM µM gramicidin, 100 µM CCCP, 0.67 µM vancomycin, 1.2 µM rifampicin, and 323.12 µM chloramphenicol were included as controls for specific assays as appropriate.

S. aureus ATCC 29213 [3] = test: Murine superficial skin infection model; format: in vivo; conditions: topical 2% cream, twice daily for 4 days, Swiss mice
Method: The in vivo efficacy of Pt1 was determined in a superficial skin infection model. Briefly, male Swiss mice, 4–6 weeks old, weighing ∼22–25 g, were used throughout the study. Mice were caged alone in an individually vented cage (IVC) to check cross-contamination and to maintain aseptic conditions throughout the experiment. Ketamine and xylazine were prepared in distilled water, 40 mg/kg and 8 mg/kg of body weight, respectively, and injected intraperitoneally (IP) as a mixture of 100 μL in each mouse for anaesthesia. Then, we proceeded with the removal of fur by applying depilatory cream. The area was cleaned with sterile distilled water. Approximately 2 cm^2 of skin area was scratched until it became visibly reddened and glistening without any bleeding. For bacterial infection, a 10 μL droplet containing 10^7 CFU/mL of S. aureus ATCC 29213 was applied to the reddened area of skin. To confirm the infection, post 4 h, untreated mice were sacrificed, skin homogenized, and various dilutions of the treatment groups (6 mice per group) were plated on TSA plates. […] Henceforth, the drug regimen was comprised of twice daily application (in the morning and the evening, with an 8 h interval) for 4 days. Control mice were regularly treated with 25–30 mg each of 2% fusidic acid (LEO Pharma, Ballerup, Denmark), 2% infuzide, and base (vehicle). […]

[4] = 60 min, Pt1 3.125 µM, Pt8 25 µM, CisPt 100 µM

With `C1=C\CC/C=C\CC/1.[Cl][Pt][Cl]` [Pt1] the “Nile red foci (membrane stress)” value (B. subtilis bSS82; 3.125 µM, not statistically supported) was “Nile red foci, indicating membrane stress, were observed”, the DAPI fluorescence intensity (B. subtilis bSS82; [4]) was “significant reduction of the DAPI signal” and the “nucleoid compaction (cell area vs DAPI-stained nucleoid area)” value (B. subtilis bSS82; [4]) was “clear nucleoid compaction”. The MIC after passaging (S. aureus ATCC 29213 [1]) was 0.25 µg/mL, the fungal load (C. albicans) was “reduced the fungal load” and the MIC (MRSA NRS 129) was 0.125 – 0.25 µg/mL and 0.33–0.67 µM. For the same compound, the “RecA accumulation on nucleoids” value [2] was “clear RecA accumulations”, the “delay until the onset of growth inhibition” value (B. subtilis 168CA) was ~ 30 min and the “reduction in bacterial load compared to vehicle-treated group” value (S. aureus ATCC 29213 [3]) was ~ 1.9 log10 CFU/g.
